Test results as given in patent US9828379B2 (priority 2013, dated 2017).

How the values were obtained:
Mouse brain MAGL = molecular target: T1, Mouse brain MAGL (Mus musculus, UniProt O35678); assay: Mouse brain proteomes from inhibitor treated mice (oral gavage, ABPP analysis); assay type: in vivo; conditions: p.o., sacrificed 4 h following administration
T1 construct: from tissue; host or cells: brain of wild-type C57Bl/6J mice dosed by oral gavage
T1 sequence (O35678 1-303): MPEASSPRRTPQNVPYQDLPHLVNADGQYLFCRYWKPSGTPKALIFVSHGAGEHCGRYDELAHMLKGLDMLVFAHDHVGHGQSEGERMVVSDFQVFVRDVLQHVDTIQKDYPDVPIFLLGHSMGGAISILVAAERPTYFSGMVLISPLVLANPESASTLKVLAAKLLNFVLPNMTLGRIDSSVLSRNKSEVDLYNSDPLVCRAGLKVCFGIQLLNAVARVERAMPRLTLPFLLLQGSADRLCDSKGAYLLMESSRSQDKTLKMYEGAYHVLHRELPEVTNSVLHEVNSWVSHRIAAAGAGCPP
Description: After 30 min, FP—Rh (1.0 μL, 50 μM in DMSO) was added and the mixture was incubated for another 30 min at 37° C. Reactions were quenched with SDS loading buffer (50 μL-4×) and run on SDS-PAGE. Following gel imaging, serine hydrolase activity was determined by measuring fluorescent intensity of gel bands corresponding to MAGL, ABHD6 and FAAH using ImageJ 1.43 u software.
Inhibitors were administered to wild-type C57Bl/6J by oral gavage in a vehicle of polyethylene glycol. Each animal was sacrificed 4 h following administration and brain proteomes were prepared and analyzed according to previously established methods (See Niphakis, M. J., et al. (2011) ACS Chem. Neurosci. and Long, J. Z., et al. Nat. Chem. Biol. 5:37-44).

MAGL [1] = molecular target: T2, MAGL (Mus musculus, UniProt O35678); assay: In vitro competitive activity-based protein profiling (Table 2, % inhibition at 1 μM); assay type: biochemical; conditions: read-out: % Inhibition at 1 μM MAGL
T2 sequence (O35678 1-303): T1 sequence (O35678 1-303)
Description: After 30 min, FP—Rh (1.0 μL, 50 μM in DMSO) was added and the mixture was incubated for another 30 min at 37° C. Reactions were quenched with SDS loading buffer (50 μL-4×) and run on SDS-PAGE.
Cell lysates were diluted with mock proteomes for use in competitive ABPP experiments.

FAAH [2] = molecular target: T3, FAAH (Mus musculus, UniProt O08914); assay: biochemical; conditions: in vitro competitive ABPP
T3 sequence (O08914 1-579): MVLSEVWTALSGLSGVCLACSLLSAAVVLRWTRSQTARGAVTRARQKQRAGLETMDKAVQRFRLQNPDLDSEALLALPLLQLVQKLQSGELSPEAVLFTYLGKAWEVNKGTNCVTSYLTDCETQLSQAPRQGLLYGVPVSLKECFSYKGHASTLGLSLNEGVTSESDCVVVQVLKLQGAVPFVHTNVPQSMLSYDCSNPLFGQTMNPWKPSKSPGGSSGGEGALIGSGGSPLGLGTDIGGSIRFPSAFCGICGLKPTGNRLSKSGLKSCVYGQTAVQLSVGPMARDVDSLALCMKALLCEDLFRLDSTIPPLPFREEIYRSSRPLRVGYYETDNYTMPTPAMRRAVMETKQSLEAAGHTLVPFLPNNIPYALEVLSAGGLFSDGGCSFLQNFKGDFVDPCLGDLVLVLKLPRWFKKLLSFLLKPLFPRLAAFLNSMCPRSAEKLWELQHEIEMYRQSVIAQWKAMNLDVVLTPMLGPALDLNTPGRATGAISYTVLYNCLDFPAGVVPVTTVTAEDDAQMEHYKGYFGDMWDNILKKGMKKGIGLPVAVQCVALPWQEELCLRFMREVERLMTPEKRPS

ABHD6 [3] = molecular target: T4, ABHD6 (Mus musculus, UniProt Q8R2Y0); assay: biochemical; conditions: in vitro competitive ABPP
T4 sequence (Q8R2Y0 1-336): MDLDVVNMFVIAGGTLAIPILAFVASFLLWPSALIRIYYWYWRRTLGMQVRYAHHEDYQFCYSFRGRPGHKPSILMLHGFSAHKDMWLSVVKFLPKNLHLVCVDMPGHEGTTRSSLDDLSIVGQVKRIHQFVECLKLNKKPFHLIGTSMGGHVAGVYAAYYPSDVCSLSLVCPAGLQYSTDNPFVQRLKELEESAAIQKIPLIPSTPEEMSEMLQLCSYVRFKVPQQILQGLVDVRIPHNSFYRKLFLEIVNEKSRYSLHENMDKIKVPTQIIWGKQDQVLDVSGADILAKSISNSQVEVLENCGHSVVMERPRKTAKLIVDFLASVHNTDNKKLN

MAGL [4] = molecular target: T2, MAGL; assay: biochemical; conditions: mouse; in vitro competitive ABPP; read-out: Mouse (IC50 value, nM) MAGL
ABHD6 [5] = molecular target: T4, ABHD6; assay: In vitro competitive activity-based protein profiling (Table 2, % inhibition at 1 μM); assay type: biochemical; conditions: read-out: % Inhibition at 1 μM ABHD6
FAAH [6] = molecular target: T3, FAAH; assay: as above; assay type: biochemical; conditions: read-out: % Inhibition at 1 μM FAAH

| SMILES | inhibition at 5 mg/kg (Mouse brain MAGL) | inhibition at 1 µM (MAGL [1]) | IC50 (FAAH [2]) | IC50 (ABHD6 [3]) | IC50 (MAGL [4]) | inhibition at 1 µM (ABHD6 [5]) | inhibition at 1 µM (FAAH [6]) |
| --- | --- | --- | --- | --- | --- | --- | --- |
| CCn1cc(CN2CC3CN(C(=O)OC(C(F)(F)F)C(F)(F)F)CC3C2)c(-c2ccccc2N2CCOCC2)n1 (stereo not shown) [Example 131, 1,1,1,3,3,3-hexafluoropropan-2-yl 5-([1-ethyl-3-[2-(morpholin-4-yl)phenyl]-1H-pyrazol-4-yl]methyl)-octahydropyrrolo[3,4-c]pyrrole-2-carboxylate] | ≥ 75% | > 75% | > 10000 nM | 1000 to 10000 nM | < 100 nM | < 25% | < 25% |
| CC(=O)N1CC2(CCN(c3ccccc3CN3CC4CN(C(=O)OC(C(F)(F)F)C(F)(F)F)CC4C3)C2)C1 (stereo not shown) [Example 137, 1,1,1,3,3,3-hexafluoropropan-2-yl 5-[(2-[2-acetyl-2,6-diazaspiro[3.4]octan-6-yl]phenyl)methyl]-octahydropyrrolo[3,4-c]pyrrole-2-carboxylate] | ≤ 25% | > 75% | 1000 to 10000 nM | 1000 to 10000 nM | < 100 nM | < 25% | < 25% |
| CC(=O)N1CCN(c2cccc(CN3CC4CN(C(=O)OC(C(F)(F)F)C(F)(F)F)CC4C3)c2C)CC1 (stereo not shown) [Example 152, 1,1,1,3,3,3-hexafluoropropan-2-yl 5-[[3-(4-acetylpiperazin-1-yl)-2-methylphenyl]methyl]-octahydropyrrolo[3,4-c]pyrrole-2-carboxylate] | ≤ 25% | > 75% | 1000 to 10000 nM | 1000 to 10000 nM | < 100 nM | 25 to 75% | < 25% |
| CCn1cc(CN2CC3CN(C(=O)OC(C(F)(F)F)C(F)(F)F)CC3C2)c(C(=O)NCc2ccccc2)n1 (stereo not shown) [Example 78, 1,1,1,3,3,3-Hexafluoropropan-2-yl 5-((3-(benzylcarbamoyl)-1-ethyl-1H-pyrazol-4-yl)methyl)hexahydropyrrolo[3,4-c]pyrrole-2(1H)-carboxylate] | 25 to 75% | > 75% | > 10000 nM | 1000 to 10000 nM | < 100 nM | 25 to 75% | < 25% |
| O=C(OC(C(F)(F)F)C(F)(F)F)N1CC2CN(Cc3cccc(Cl)c3N3CCC(F)(F)CC3)CC2C1 (stereo not shown) [Example 158, 1,1,1,3,3,3-hexafluoropropan-2-yl 5-[[3-chloro-2-(4,4-difluoropiperidin-1-yl)phenyl]methyl]-octahydropyrrolo[3,4-c]pyrrole-2-carboxylate] |  | > 75% | > 10000 nM | 1000 to 10000 nM | 100 to 1000 nM | < 25% | < 25% |
| O=C(OC(C(F)(F)F)C(F)(F)F)N1CC2CN(Cc3cccc(-c4ccccc4)c3)CC2C1 (stereo not shown) [Example 13, 1,1,1,3,3,3-Hexafluoropropan-2-yl 5-[(3-phenylphenyl)methyl]-octahydropyrrolo[3,4-c]pyrrole-2-carboxylate] |  | > 75% | 100 to 1000 nM | 1000 to 10000 nM | < 100 nM | < 25% | 25 to 75% |
| CC(=O)NC1CCN(c2cccc(CN3CC4CN(C(=O)OC(C(F)(F)F)C(F)(F)F)CC4C3)c2C)CC1 (stereo not shown) [Example 151, 1,1,1,3,3,3-hexafluoropropan-2-yl 5-[[3-(4-acetamidopiperidin-1-yl)-2-methylphenyl]methyl]-octahydropyrrolo[3,4-c]pyrrole-2-carboxylate] |  | > 75% | 1000 to 10000 nM | 1000 to 10000 nM | < 100 nM | 25 to 75% | < 25% |
| CCN1CCN(c2c(C)cccc2CN2CC3CN(C(=O)OC(C(F)(F)F)C(F)(F)F)CC3C2)CC1 (stereo not shown) [Example 148, 1,1,1,3,3,3-hexafluoropropan-2-yl 5-[[2-(4-ethylpiperazin-1-yl)-3-methylphenyl]methyl]-octahydropyrrolo[3,4-c]pyrrole-2-carboxylate] |  | > 75% | > 10000 nM | 1000 to 10000 nM | 100 to 1000 nM | < 25% | < 25% |
| CC(=O)N1CCN(c2ccc(CN3CC4CN(C(=O)OC(C(F)(F)F)C(F)(F)F)CC4C3)c(F)c2)CC1 (stereo not shown) [Example 26, 1,1,1,3,3,3-Hexafluoropropan-2-yl 5-[[4-(4-acetylpiperazin-1-yl)-2-fluorophenyl]methyl]-octahydropyrrolo[3,4-c]pyrrole-2-carboxylate] |  | > 75% | 1000 to 10000 nM | 1000 to 10000 nM | 100 to 1000 nM | 25 to 75% | < 25% |
| CCn1ncc(CN2CC3CN(C(=O)OC(C(F)(F)F)C(F)(F)F)CC3C2)c1C(=O)NCc1ccccc1 (stereo not shown) [Example 75, 1,1,1,3,3,3-Hexafluoropropan-2-yl 5-((5-(benzylcarbamoyl)-1-ethyl-1H-pyrazol-4-yl)methyl)hexahydropyrrolo[3,4-c]pyrrole-2(1H)-carboxylate] |  | > 75% | 1000 to 10000 nM | 100 to 1000 nM | < 100 nM | > 75% | < 25% |
| Cc1ccc(CN2CC3CN(C(=O)OC(C(F)(F)F)C(F)(F)F)CC3C2)cc1-c1ccccc1 (stereo not shown) [Example 206, 1,1,1,3,3,3-hexafluoropropan-2-yl 5-((6-methyl-[1,1′-biphenyl]-3-yl)methyl)hexahydropyrrolo[3,4-c]pyrrole-2(1H)-carboxylate] |  | > 75% | 1000 to 10000 nM | 1000 to 10000 nM | 100 to 1000 nM | 25 to 75% | 25 to 75% |
| CC(C)(C)c1cc(CN2CC3CN(C(=O)OC(C(F)(F)F)C(F)(F)F)CC3C2)n(C2CCOCC2)n1 (stereo not shown) [Example 157, 1,1,1,3,3,3-hexafluoropropan-2-yl 5-[[3-tert-butyl-1-(oxan-4-yl)-1H-pyrazol-5-yl]methyl]-octahydropyrrolo[3,4-c]pyrrole-2-carboxylate] |  | > 75% | > 10000 nM | 1000 to 10000 nM | 100 to 1000 nM | < 25% | < 25% |
| CC(C)n1cc(CN2CC3CN(C(=O)OC(C(F)(F)F)C(F)(F)F)CC3C2)c(-c2ccccc2)n1 (stereo not shown) [Example 53, 1,1,1,3,3,3-Hexafluoropropan-2-yl 5-[[3-phenyl-1-(propan-2-yl)-1H-pyrazol-4-yl]methyl]-octahydropyrrolo[3,4-c]pyrrole-2-carboxylate] |  | > 75% | 1000 to 10000 nM | 1000 to 10000 nM | < 100 nM | 25 to 75% | < 25% |
